SMILES strings stand for the structures. A value given as a limit tells only on which side of the number the result lay.

A short description of data set [1]: in vitro. The following applies: for Concentration (μM) of analyte PEA, 0 min / Concentration (μM) of analyte PEA, 10 min / Concentration (μM) of analyte PEA, 20 min / Concentration (μM) of analyte PEA, 30 min / Concentration (μM) of analyte PEA, 60 min / % Remaining of Initial (n = 1), 0 min / % Remaining of Initial (n = 1), 10 min / % Remaining of Initial (n = 1), 20 min / % Remaining of Initial (n = 1), 30 min / % Remaining of Initial (n = 1), 60 min / microsomal CLint at 1 μM / half-life at 1 μM / microsomal CLint / half-life: both, human; for Concentration (μM) of analyte PEA, 0 min / Concentration (μM) of analyte PEA, 10 min / Concentration (μM) of analyte PEA, 20 min / Concentration (μM) of analyte PEA, 30 min / Concentration (μM) of analyte PEA, 60 min / % Remaining of Initial (n = 1), 0 min / % Remaining of Initial (n = 1), 10 min / % Remaining of Initial (n = 1), 20 min / % Remaining of Initial (n = 1), 30 min / % Remaining of Initial (n = 1), 60 min: 1 μM; for % Remaining of Initial (n = 1), 0 min: s9, 0 h; for % Remaining of Initial (n = 1), 10 min: s9, 10 min; for % Remaining of Initial (n = 1), 20 min: s9, 20 min; for % Remaining of Initial (n = 1), 30 min: s9, 0.5 h; for % Remaining of Initial (n = 1), 60 min: s9, 1 h; for microsomal CLint at 1 μM: s9, CLint (mL/min/mg protein). The procedure:
The reaction mixture, minus cofactors, was prepared as described below. The test article was added into the reaction mixture at a final concentration of 1 μM. […] An aliquot of the reaction mixture (without cofactor cocktail) was equilibrated in a shaking water bath at 37° C. for 3 minutes. The reaction was initiated by the addition of cofactor cocktail, and the mixture was incubated in a shaking water bath at 37° C. Aliquots (100 μL) were withdrawn at 0, 10, 20, 30, and 60 minutes. All samples were immediately combined with 400 uL of icecold 50/50 acetonitrile/H2O containing 0.1% formic acid and internal standard to terminate the reaction. The samples were then mixed and centrifuged to precipitate proteins. Calibration standards were prepared in matched matrix. All samples and standards were assayed by LC-MS/MS using electrospray ionization for both the dosed prodrug I-9 and the expected drug (PEA). Analytical conditions are outlined in Appendix 4-1. The test article concentration at each time point was compared to the test article concentration at time 0 to determine the percent remaining at each time point. Half-lives were calculated using GraphPad software, fitting to single-phase exponential decay equation.
(§1) Reaction mixture, minus cofactors, was prepared as described below. Test article was added into the reaction mixture at a final concentration of 1 μM. […] An aliquot of the reaction mixture (without cofactor cocktail) was equilibrated in a shaking water bath at 37° C. for 3 minutes. The reaction was initiated by the addition of cofactor cocktail, and the mixture was incubated in a shaking water bath at 37° C. Aliquots (100 μL) were withdrawn at 0, 10, 20, 30, and 60 minutes. Test article samples were immediately combined with 300 μL of ice-cold acetonitrile containing 1% formic acid. Control samples were immediately combined with 400 μL of ice-cold 50/50 acetonitrile (ACN)/dH2O containing 0.1% formic acid and internal standard to terminate the reaction. Samples were then mixed and centrifuged to precipitate proteins. Calibration standards were prepared in matched matrix. Samples and standards were assayed by LC-MS/MS using electrospray ionization for both the dosed prodrug and the expected drug (PEA). Analytical conditions are outlined in Appendix 8-1. Test article concentration at each time point was compared to test article concentration at time 0 to determine the percent remaining at each time point. Halflives were calculated using GraphPad software, fitting to a single-phase exponential decay equation.
as §1, with “for 5” for “for 3”, “minutes. Reaction” for “minutes. The reaction”, “and” for “and the”, “both” for “both the”, “Appendix 10-1.” for “Appendix 8-1.”
Reaction mixture, minus cofactors, was prepared as described below.

Data set [2] can be described thus: Plasma stability (37° C., pH 7.4), human. The data set is classed as in vitro ADME. The following applies: for half-life at 1 μM: both sexes, human, plasma, pH 7.4, human plasma; for % Remaining of Initial (n = 1), 0 min / % Remaining of Initial (n = 1), 15 min / % Remaining of Initial (n = 1), 30 min / % Remaining of Initial (n = 1), 60 min / % Remaining of Initial (n = 1), 120 min: human plasma; for % Remaining of Initial (n = 1), 0 min: pH 7.4, 0 min; for % Remaining of Initial (n = 1), 15 min: pH 7.4, 15 min; for % Remaining of Initial (n = 1), 30 min: pH 7.4, 30 min; for % Remaining of Initial (n = 1), 60 min: pH 7.4, 60 min; for % Remaining of Initial (n = 1), 120 min: pH 7.4, 120 min. The procedure:
(§2) Studies were carried out in mixed-gender human plasma (Lot #GLP530-5), male Sprague-Dawley rat (Lot #RAT297944, RAT313140), male CD-1 mouse (Lot #MSE237700), and male Beagle dog (Lot #BGL87670, BGL82614), collected on sodium heparin. Plasma was adjusted to pH 7.4 prior to initiating the experiments. DMSO stocks were first prepared for the test articles. Aliquots of the DMSO solutions were dosed into 700 μL of plasma, which had been pre-warmed to 37° C., at a final test article concentration of 1 μM. […] Samples were stored at 4° C. until the end of the experiment. After the final time point was sampled, the plate was mixed and then centrifuged at 3,000 rpm for 10 minutes. Calibration standards were prepared in matched matrix. […] Analytical conditions are outlined in Appendix 8-1.
as §2, with “#AS1650-2),” for “#GLP530-5),”, “#RAT297944),” for “#RAT297944, RAT313140),”, “CD-I” for “CD-1”, “#BGL91384),” for “#BGL87670, BGL82614),”, “10-1.” for “8-1.”
Studies were carried out in mixed-gender human plasma (Lot #AS1650-2), male Sprague-Dawley rat (Lot #RAT297944), male CD-1 mouse (Lot #MSE237700), and male Beagle dog (Lot #BGL91384), collected on sodium heparin. Plasma was adjusted to pH 7.4 prior to initiating the experiments. DMSO stocks were first prepared for test articles. […] Samples were stored at 4° C. until the end of experiment. After the final time point was sampled, the plate was mixed and then centrifuged at 3,000 rpm for 10 minutes. Calibration standards were prepared in matched matrix. […] Analytical conditions are outlined in Appendix 13-1.
Studies were carried out in mixed-gender human plasma (Lot #AS 1650-2), male Sprague-Dawley rat (Lot #RAT320835), male CD-1 mouse (Lot #MSE260693), and 6 male Beagle dog (Lot #BGL91384), on sodium heparin. Plasma was adjusted to pH 7.4 prior to initiating the experiments. DMSO stocks were first prepared for the test articles. Aliquots of the DMSO solutions were dosed into 700 μL of plasma, which had been pre-warmed to 37° C., at a final test article concentration of 1 μM. […] Samples were stored at 4° C. until the end of the experiment. After the final time point was sampled, the plate was mixed and then centrifuged at 3,000 rpm for 10 minutes. Calibration standards were prepared in matched matrix. […] Analytical conditions are outlined in Appendix 17-1.

The mark [3] stands for this setting: test article 1 μM, 37° C., pH 7.4, read-out: Half-life.
The mark [4] stands for this setting: calculated value beyond duration of experiment, read-out: Half-life (min), calculated half-life in parentheses.

As a reminder, the half-life is the time needed for the level to fall by half in the phase considered. For the compound `CCCCCCCCCCCCCCCC(=O)NCCOC(=O)CCC` [Compound I-2], in data set [1], the “Concentration (μM) of analyte PEA, 0 min” value stood at 0.011 µM; the “Concentration (μM) of analyte PEA, 10 min” value (from here on “Concentration (μM) … 10 min”) worked out at 0.057 µM; the “Concentration (μM) of analyte PEA, 20 min” value (“Concentration (μM) … 20 min” below) was 0.075 µM; the “Concentration (μM) of analyte PEA, 30 min” value (shortened to “Concentration (μM) … 30 min”) is 0.067 µM. Further, in data set [1], the “Concentration (μM) of analyte PEA, 60 min” value (“Concentration (μM) … 60 min” for short) came out at 0.11 µM; the “% Remaining of Initial (n = 1), 0 min” value was 100%; the “% Remaining of Initial (n = 1), 10 min” value came out at 73%; the “% Remaining of Initial (n = 1), 20 min” value was determined as 41%. Also, in data set [1], the “% Remaining of Initial (n = 1), 30 min” value is reported as 28% and the “% Remaining of Initial (n = 1), 60 min” value is given as 9.6%. Also, in data set [2] (setting [3]), the half-life at 1 μM was greater than 120 min. For the same compound, the half-life at 1 μM in data set [2] (setting [4]) is 135 min. For the same compound, in data set [2] (test article 1 μM, 37° C.), the “% Remaining of Initial (n = 1), 0 min” value stood at 100%; the “% Remaining of Initial (n = 1), 15 min” value came out at 96%; the “% Remaining of Initial (n = 1), 30 min” value came to 91%; the “% Remaining of Initial (n = 1), 60 min” value came out at 84%. Also, the “% Remaining of Initial (n = 1), 120 min” value in data set [2] (test article 1 μM, 37° C.) was 51%.
One may read the microsomal CLint as the capacity of the preparation to metabolise the compound, expressed as a volume cleared per time. High values mean rapid turnover, low ones slow turnover. Regarding `CCCCCCCCCCCCCCCC(=O)NCCOC(=O)CCC(=O)OCC(COC(=O)CCCCCCC)OC(=O)CCCCCCC` (centres unmarked) [Compound I-3, PEA-Succinate-Glycerol-Di-Caprylic], in data set [1], the “Concentration (μM) of analyte PEA, 0 min” value stood at 0 µM; the “Concentration (μM) … 10 min” value is 0.0027 µM; the “Concentration (μM) … 20 min” value is 0.025 µM; the “Concentration (μM) … 30 min” value came to 0.034 µM. In data set [1], the “Concentration (μM) … 60 min” value is 0.048 µM; the “% Remaining of Initial (n = 1), 0 min” value is 100%; the “% Remaining of Initial (n = 1), 10 min” value amounted to 76%; the “% Remaining of Initial (n = 1), 20 min” value is on record as 86%. In data set [1], the “% Remaining of Initial (n = 1), 30 min” value was 83%; the “% Remaining of Initial (n = 1), 60 min” value is recorded as 60%; the microsomal CLint at 1 μM is less than 11.6 µL/min/mg. The compound further showed a half-life at 1 μM in data set [1] (s9, Half-life (min)) greater than 1 h. Moreover, the half-life at 1 μM in data set [2] (setting [3]) was greater than 120 min. In addition, in data set [2] (setting [4]), the half-life at 1 μM was 211 min. In data set [2] (test article 1 μM, 37° C.), the “% Remaining of Initial (n = 1), 0 min” value is given as 100%; the “% Remaining of Initial (n = 1), 15 min” value is listed as 109%; the “% Remaining of Initial (n = 1), 30 min” value amounted to 84%; the “% Remaining of Initial (n = 1), 60 min” value is listed as 65%. Further, the “% Remaining of Initial (n = 1), 120 min” value in data set [2] (test article 1 μM, 37° C.) is recorded as 77%.
With `CC/C=C\C/C=C\C/C=C\C/C=C\C/C=C\CCCC(=O)OCCNC(=O)CCCCCCCCCCCCCCC` [Compound I-5], in data set [1], the “Concentration (μM) of analyte PEA, 0 min” value is 0 µM; the “Concentration (μM) … 10 min” value came out at 0.050 µM; the “Concentration (μM) … 20 min” value came out at 0.063 µM; the “Concentration (μM) … 30 min” value amounted to 0.074 µM. Further, in data set [1], the “Concentration (μM) … 60 min” value was determined as 0.10 µM; the “% Remaining of Initial (n = 1), 0 min” value was found to be 100%; the “% Remaining of Initial (n = 1), 10 min” value is listed as 82%; the “% Remaining of Initial (n = 1), 20 min” value amounted to 49%. Further, in data set [1], the “% Remaining of Initial (n = 1), 30 min” value is reported as 38%; the “% Remaining of Initial (n = 1), 60 min” value is on record as 45%; the microsomal CLint at 1 μM is 21.6 µL/min/mg. In data set [1] (s9, Half-life (min)), this compound displayed a half-life at 1 μM of 0.533 h. The half-life at 1 μM in data set [2] (setting [3]) is greater than 120 min. In data set [2] (setting [4]), the half-life at 1 μM was 195 min. In addition, in data set [2] (test article 1 μM, 37° C.), the “% Remaining of Initial (n = 1), 0 min” value amounted to 100%; the “% Remaining of Initial (n = 1), 15 min” value came out at 110%; the “% Remaining of Initial (n = 1), 30 min” value is listed as 81%; the “% Remaining of Initial (n = 1), 60 min” value was 82%. For the same compound, the “% Remaining of Initial (n = 1), 120 min” value in data set [2] (test article 1 μM, 37° C.) is on record as 69%.
`C[C@]12CC[C@H]3[C@@H](CCC4=CC(=O)CC[C@@]43C)[C@@H]1CC[C@@H]2O` [Testosterone, testosterone, reference compound]: the microsomal CLint is 50.9 µL/min/mg in data set [1] (s9, CLint, Control Compound, Human intestinal S9 fraction); 50.9 µL/min/mg in data set [1] (s9, CLint, Human intestinal S9 fraction, control compound); 26.9 µL/min/mg in data set [1] (s9, Clint, control compound, Example 4 control run). The half-life in data set [1] (s9, Half-life (min), control compound, human intestinal S9 fraction) turned out to be 0.13 h; in data set [1] (s9, Half-life, control compound, Example 4 control run), 0.433 h; in data set [1] (s9, Half-life, control compound, human intestinal S9 fraction) it was 0.08 h. Besides, the CLin in data set [1] (control compound, human intestinal S9 fraction) is 0.144 ml/min/mg protein.

These data come from patent US11547681B2, “N-acylethanolamide derivatives and uses thereof” (ELIEM THERAPEUTICS, INC., priority 2016, dated 2023).
